Results on 17 compounds are retold here after patent publication US20180099937A1, “NOVEL ARYL-CYANOGUANIDINE COMPOUNDS” (Bayer Pharma Aktiengesellschaft, priority 2015, published 2018).

Sequence of SMYD2 (Q9NRG4 whole entry): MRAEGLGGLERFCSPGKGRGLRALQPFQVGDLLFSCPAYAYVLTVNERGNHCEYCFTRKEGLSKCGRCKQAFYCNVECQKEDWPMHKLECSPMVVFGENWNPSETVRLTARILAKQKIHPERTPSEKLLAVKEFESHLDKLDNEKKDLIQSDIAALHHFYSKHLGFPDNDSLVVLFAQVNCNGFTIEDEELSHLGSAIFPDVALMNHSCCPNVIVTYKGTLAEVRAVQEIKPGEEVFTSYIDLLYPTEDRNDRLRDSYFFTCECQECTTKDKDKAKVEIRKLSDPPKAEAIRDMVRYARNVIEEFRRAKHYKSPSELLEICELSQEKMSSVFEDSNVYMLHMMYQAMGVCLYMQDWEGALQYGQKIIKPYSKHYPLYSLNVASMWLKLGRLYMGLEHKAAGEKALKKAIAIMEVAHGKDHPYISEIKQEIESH

The experiment concerns the target SMYD2 (Homo sapiens, UniProt Q9NRG4). Kind of experiment: Scintillation Proximity Assay (SPA) for detection of SMYD2 enzymatic inhibition. In kind it is biochemical. Further details: The SMYD2 full length enzyme was produced in-house by expression (with an N-terminal 6× His tag) in E. coli; 6xHis (N); made in house; host or cells: E. coli. Particulars: SMYD2 full length enzyme, p53 Peptide substrate 1.0 μM, 3H-SAM 60 nM; read-out: IC50 [mol/l] (SPA Assay). The source says:
1.1 Scintillation Proximity Assay (SPA) for Detection of SMYD2 Enzymatic Inhibition
SMYD2 inhibitory activities of the compounds described in the present invention were quantified using a scintillation proximity assay (SPA) which measures methylation by the enzyme of the synthetic, biotinylated peptide Btn-Ahx-[…]—Amid×TFA (Biosyntan) derived from p53 and referred to from here on as “p53 Peptide”. The SMYD2 full length enzyme was produced in-house by expression (with an N-terminal 6× His tag) in E. coli and purification by affinity chromatography on a Ni-NTA Sepharose column followed by a size exclusion chromatography step on a Superdex 200 16/60 column (GE Healthcare).
In a typical assay 11 different concentrations of each compound (0.1 nM, 0.33 nM, 1.1 nM, 3.8 nM, 13 nM, 44 nM, 0.15 μM, 0.51 μM, 1.7 μM, 5.9 μM and 20 μM) were tested in duplicate within the same microtiter plate. To this end, 100-fold concentrated compound solutions (in DMSO) were previously prepared by serial dilution (1:3.4) of 2 mM stocks in a clear low volume 384-well source microliter plate (Greiner Bio-One), from which 50 nl of compound solutions were transferred into a white low volume test microtiter plate from the same supplier. Subsequently, 2.5 μl SMYD2 in aqueous assay buffer [50 mM Tris/HCl pH 9.0 (AppliChem), 1 mM dithiothreitol (DTT, Sigma), 0.01% (w/v) bovine serum albumine (BSA, Sigma), 0.0022% (v/v) Pluronic (Sigma)] were added to the compounds in the test plate to a final enzyme concentration of —typically—3 nM (this parameter was adjusted depending on the activity of the enzyme lot in order to be within the linear dynamic range of the assay). The samples were then incubated for 15 min at 22° C. to allow pre-equilibration of the putative enzyme-inhibitor complexes before the start of the methylation reaction, which was initiated by the addition of 2.5 μl 2-fold concentrated solution (in assay buffer) of titriated S-Adenosyl-L-Methionine (3H-SAM, Perkin Elmer, final concentration: 60 nM) and p53 Peptide substrate (final concentration: 1.0 μM). The resulting mixture (5 μl final volume) was shortly centrifuged (2 min., 1500 rpm) and incubated at 22° C. during 30 min. Thereupon the reaction was stopped by adding 3 μl of Streptavidin PS SPA imaging beads (Perkin Elmer, final concentration of 3.12 μg/μl) and “cold” SAM (AK Scientific, 25 μM final concentration) for non-specific binding reduction. Plates containing the stopped reaction were sealed with transparent adhesive foil (Perkin Elmer), centrifuged (2 min., 1500 rpm), and further incubated for —at least—1 h at RT (or overnight at 4° C.) in order to allow the SPA signals to develop. Subsequently, the amount of product was evaluated by measuring the energy transfer from the β-particles emitted by the 3H-labeled substrate to the Europium scintillator co-polymerized in the polystyrene matrix of the PS imaging beads, using the standard settings for this purpose of a Viewlux (Perkin-Elmer) CCD plate imaging device (emission filter 613/55 (IFP). The resulting scintillation counts were taken as indicator for the amount of methylated peptide per well. The data were normalised using two sets of control wells (typically 16 each) for high−(=enzyme reaction with DMSO instead of test compound=0% =Minimum inhibition) and low−(=all assay components without enzyme=100% =Maximum inhibition) SMYD2 activity. IC50 values were calculated by fitting the normalized inhibition data to a 4-parameter logistic equation using the “Screener” analysis software from Genedata.
In general terms: In a scintillation proximity assay essentially only radioactivity close to the scintillant gives light.
For the compound `CCN(C(=O)[C@H]1C[C@@H](F)CN1)C1CN(/C(=N\C#N)Nc2cccc(OC(F)F)c2)N=C1c1ccc(Cl)c(Cl)c1` (mixture of isomers) [Example 4, (4R)-N-[1-{N′-Cyano-N-[3-(difluoromethoxy)phenyl]carbamimidoyl}-3-(3,4-dichlorophenyl)-4,5-dihydro-1H-pyrazol-4-yl]-N-ethyl-4-fluoro-D-prolinamide], the IC50 worked out at 85.2 nM.
Take `CC1(C)CN[C@@H](C(=O)NC2CN(/C(=N\C#N)Nc3cccc(OC(F)F)c3)N=C2c2ccc(Cl)c(Cl)c2)C1` (mixture of isomers) [Example 7, N-[1-{N′-Cyano-N-[3-(difluoromethoxy)phenyl]carbamimidoyl}-3-(3,4-dichlorophenyl)-4,5-dihydro-1H-pyrazol-1-yl]-4,4-dimethyl-D-prolinamide]: the IC50 came out at 490 nM.
Turning to `CCN(C(=O)[C@H]1C[C@@H](O)CN1)C1CN(/C(=N\C#N)Nc2cccc(OC(F)F)c2F)N=C1c1ccc(Cl)c(Cl)c1` (mixture of isomers) [Example 14, (4R)-N-[1-{N′-Cyano-N-[3-(difluoromethoxy)-2-fluorophenyl]carbamimidoyl}-3-(3,4-dichlorophenyl)-4,5-dihydro-1H-pyrazol-4-yl]-N-ethyl-4-hydroxy-D-prolinamide], the IC50 turned out to be 79.8 nM.
Turning to `CCN(C(=O)[C@H]1CCCN1)C1CN(/C(=N\C#N)Nc2ccc(F)c(OC(F)F)c2)N=C1c1ccc(Cl)c(Cl)c1` (mixture of isomers) [Example 15, N-[1-{N′-Cyano-N-[3-(difluoromethoxy)-4-fluorophenyl]carbamimidoyl}-3-(3,4-dichlorophenyl)-4,5-dihydro-1H-pyrazol-4-yl]-N-ethyl-D-prolinamide], the IC50 turned out to be 24.4 nM.
Consider `CCN(C(=O)[C@H]1C[C@@H](O)CN1)C1CN(/C(=N\C#N)Nc2ccc(F)c(OC(F)F)c2)N=C1c1ccc(Cl)c(Cl)c1` (mixture of isomers) [Example 16, (4R)-N-[1-{N′-Cyano-N-[3-(difluoromethoxy)-4-fluorophenyl]carbamimidoyl}-3-(3,4-dichlorophenyl)-4,5-dihydro-1H-pyrazol-4-yl]-N-ethyl-4-hydroxy-D-prolinamide], for which the IC50 was found to be 111 nM.
Turning to `CCN(C(=O)[C@H]1CCCN1)C1CN(/C(=N\C#N)Nc2cccc(OC(F)(F)F)c2)N=C1c1ccc(Cl)c(Cl)c1` (mixture of isomers) [Example 17, N-[1-{N′-Cyano-N-[3-(trifluoromethoxy)phenyl]carbamimidoyl}-3-(3,4-dichlorophenyl)-4,5-dihydro-1H-pyrazol-4-yl]-N-ethyl-D-prolinamide], the IC50 was found to be 116 nM.
As for `CCN(C(=O)[C@H]1CCCN1)C1CN(/C(=N\C#N)Nc2cc(OC(F)(F)F)ccc2OC)N=C1c1ccc(Cl)c(Cl)c1` (mixture of isomers) [Example 19, N-[1-{N′-Cyano-N-[2-methoxy-5-(trifluoromethoxy)phenyl]carbamimidayl}-3-(3,4-dichlorophenyl)-4,5-dihydro-1H-pyrazol-4-yl]-N-ethyl-D-prolinamide], the IC50 was 17.2 nM.
Take `CCN(C(=O)[C@H]1C[C@@H](O)CN1)C1CN(/C(=N\C#N)Nc2cc(OC(F)(F)F)ccc2OC)N=C1c1ccc(Cl)c(Cl)c1` (mixture of isomers) [Example 20, (4R)-N-[1-{N′-Cyano-N-[2-methoxy-5-(trifluoromethoxy)phenyl]carbamimidayl}-3-(3,4-dichlorophenyl)-4,5-dihydro-1H-pyrazol-4-yl]-N-ethyl-1-hydroxy-D-prolinamide]: the IC50 was 22.4 nM.
Next, `CCN(C(=O)[C@H]1CCCN1)C1CN(/C(=N\C#N)Nc2cccc(OC(F)(F)F)c2F)N=C1c1ccc(Cl)c(Cl)c1` (mixture of isomers) [Example 21, N-[1-{N′-Cyano-N-[2-fluoro-3-(trifluoromethoxy)phenyl]carbamimidoyl}-3-(3,4-dichlorophenyl)-4,5-dihydro-1H-pyrazol-4-yl]-N-ethyl-D-prolinamide]: 50.5 nM; `CCN(C(=O)[C@H]1CCCN1)C1CN(/C(=N\C#N)Nc2ccc(F)c(OC(F)(F)F)c2)N=C1c1ccc(Cl)c(Cl)c1` (mixture of isomers) [Example 22, N-[1-{N′-Cyano-N-[4-fluoro-3-(trifluoromethoxy)phenyl]carbamimidoyl}-3-(3,4-dichlorophenyl)-4,5-dihydro-1H-pyrazol-4-yl]-N-ethyl-D-prolinamide]: 50.6 nM; `CCN(C(=O)[C@H]1CCN1)C1CN(/C(=N\C#N)Nc2cc(F)cc(OC(F)(F)F)c2)N=C1c1ccc(Cl)c(Cl)c1` (mixture of isomers) [Example 23, (2R)-N-[1-{N′-Cyano-N-[3-fluoro-5-(trifluoromethoxy)phenyl]carbamimidoyl}-3-(3,4-dichlorophenyl)-4,5-dihydro-1H-pyrazol-4-yl]-N-ethylazetidine-2-carboxamide]: 43.2 nM.
As for `CCN(C(=O)[C@H]1CCCN1)C1CN(/C(=N\C#N)Nc2cc(F)cc(OC(F)(F)F)c2)N=C1c1ccc(Cl)c(Cl)c1` (mixture of isomers) [Example 24, N-[1-{N′-Cyano-N-[3-fluoro-5-(trifluoromethoxy)phenyl]carbamimidoyl}-3-(3,4-dichlorophenyl)-4,5-dihydro-1H-pyrazol-4-yl]-N-ethyl-D-prolinamide], the IC50 was 65.1 nM.
As for `CCN(C(=O)[C@H]1CCCN1)C1CN(/C(=N\C#N)Nc2cc(OC(F)(F)F)ccc2F)N=C1c1ccc(Cl)c(Cl)c1` (mixture of isomers) [Example 26, N-[1-{N′-Cyano-N-[2-fluoro-5-(trifluoromethoxy)phenyl]carbamimidoyl}-3-(3,4-dichlorophenyl)-4,5-dihydro-1H-pyrazol-4-yl]-N-ethyl-D-prolinamide], the figure is 61.3 nM.
Next, `CCN(C(=O)[C@H]1CCCN1)C1CN(/C(=N\C#N)Nc2cc(C(F)(F)F)ccc2OC)N=C1c1ccc(Cl)c(Cl)c1` (mixture of isomers) [Example 27, N-[1-{N′-Cyano-N-[2-methoxy-5-(trifluoromethyl)phenyl]carbamimidoyl}-3-(3,4-dichlorophenyl)-4,5-dihydro-1H-pyrazol-4-yl]-N-ethyl-D-prolinamide]: 4.54 nM.
On to `CCN(C(=O)[C@H]1C[C@@H](O)CN1)C1CN(/C(=N\C#N)Nc2cc(C(F)(F)F)ccc2OC(F)(F)F)N=C1c1ccc(Cl)c(Cl)c1` (mixture of isomers) [Example 29, (4R)-N-[1-{N′-Cyano-N-[2-(trifluoromethoxy)-5-(trifluoromethyl)phenyl]carbamimidoyl}-3-(3,4-dichlorophenyl)-4,5-dihydro-1H-pyrazol-4-yl]-N-ethyl-4-hydroxy-D-prolinamide], for which the IC50 was found to be 221 nM.
As for `CCN(C(=O)[C@H]1CCCN1)C1CN(/C(=N\C#N)Nc2cc(C(F)(F)F)ccc2OC(F)(F)F)N=C1c1ccc(Cl)c(Cl)c1` (mixture of isomers) [Example 30, N-[1-{N′-Cyano-N-[2-(trifluoromethoxy)-5-(trifluoromethyl)phenyl]carbamimidoyl}-3-(3,4-dichlorophenyl)-4,5-dihydro-1H-pyrazol-4-yl]-N-ethyl-D-prolinamide], the figure is 96.6 nM; as for `CCN(C(=O)[C@H]1CCCN1)C1CN(/C(=N\C#N)Nc2cccc(CC(F)(F)F)c2)N=C1c1ccc(Cl)c(Cl)c1` (mixture of isomers) [Example 31, N-[1-{N′-Cyano-N-[3-(2,2,2-trifluorelethyl)phenyl]carbamimidayl}-3-(3,4-dichlorophenyl)-4,5-dihydro-1H-pyrazol-4-yl]-N-ethyl-D-prolinamide], 23.7 nM.
